The values that follow come from patent US20240342128A1, “IMMUNE MEMORY INDUCTION BY PLATINUM BASED COMPOUNDS” (AKAMARA THERAPEUTICS, INC., priority 2016, published 2024).

For data set [1], the system named is 4T1 tumors. Briefly: relative mRNA expression (qRT-PCR) of immune genes in harvested 4T1 tumors. Type of data set: in vivo. As to conditions: 4T1 tumors in Balb/c mice, one cycle of treatment, FIG. 1A. As to the method: 4T1 cells were subcutaneously implanted in Balb/c mice to generate tumors. When tumors reached an average volume of 100 mm^3, they were treated with either Compound 1 or Oxaliplatin. After one cycle of treatment, following regression, tumors were harvested and a portion of the tumor from each group was used for total RNA isolation. The tumor infiltrating immune cells were evaluated for relative mRNA expression levels of immune activating and immune suppressive genes (Denkert et al., Clin Oncol. 2015; 33(9):983-91).
In general terms: Real-time PCR tracks product formation cycle by cycle.

The subject of data set [2] is LLC tumors. Nature of the data set: immunohistochemical analysis of tumor sections, murine NSCLC tumor model. It is filed as in vivo. As to conditions: LLC tumors in C57/BL6 mice, two cycles of treatment, FFPE sections, FIG. 1B. Here is the method:
Murine NSCLC tumor model was generated by subcutaneously implanting LLC cells in C57/BL6 mice. Treatment with either Compound 1 or Oxaliplatin was initiated when average tumor volume reached 100 mm^3. Following two cycles of treatment, tumors were harvested and a portion fixed in formalin. FFPE sections were generated from the fixed tumors and immunohistochemical analysis of tumor sections was carried out for both T and B-cells.

Data set [3] deals with T cell receptor (TCR). Briefly: activation of TCR. As to conditions: in comparison to Oxaliplatin, FIG. 2A.
In data set [4] the test system is CD8+ T cells in tumors. Nature of the data set: infiltration of cytotoxic CD8+ T-cells in treated tumors. Type of data set: in vivo. As to conditions: FIG. 2B.
Data set [5] relates to 4T1 cells. Briefly: immune memory study: re-implantation of 4T1 cells. It is filed as in vivo, Balb/c mice. Here is the method:
4T1 cells were subcutaneously implanted in Balb/c mice to generate tumors. When tumors reached an average volume of 100 mm^3, they were treated with Compound 1. Two groups of Balb/c mice (non-tumor bearing) were either treated with Compound 1 or saline (designated Group 1 and 2 respectively; FIG. 3A).
Immune memory cells are poised to rapidly expand and induce effector functions upon recurrence, while existing in a functionally quiescent state. In order to check this hypothesis, we examined immune memory in Compound 1 treated tumors. […] The results also rule out the effect of any residual drug inducing tumor memory in non-tumor bearing animals.

Data set [6] relates to 4T1 tumors. Briefly: tumor regression in immunocompetent versus immune-deficient mice strains. Type of data set: in vivo, mice (Balb/c, Jh−/−, SCID). Conditions: FIG. 4. From the text:
To understand the role of immune components in tumor regression following treatment with Compound 1, tumor regression was studied in three different mice strains. These included immunocompetent mice (Balb/c); B cell-deficient mice (designated Jh^−/−) and mice lacking functional B cells and T cells (SCID). 4T1 cells were subcutaneously implanted in the three strains mentioned and when tumors reached an average volume of 100 mm^3, they were divided into two groups. One group was kept as control and the other treated with Compound 1 and the tumor volume in all the animals were recorded.

The subject of data set [7] is 4T1 cells. Briefly: ds-RNA detection by propidium iodide staining after DNase/RNase treatment. It is filed as cell-based. As to the method: 4T1 cells were grown on a coverslip in RPMI media to 70-80% confluency. The cells were treated with Compound 1 or Oxaliplatin. Detection of ds-RNA was a modification of protocol described by Kantarjian et al. (Kantarjian et al., Blood. 1985 July; 66(1):39-46). Following treatment, the coverslips were washed in phosphate-buffered saline (PBS) and fixed in 70% ice-cold ethanol. Cells were then washed with saline and treated with 1 mg/mL of DNase in 0.25 mol/L sucrose, 5 mmol/L MgCl2, and 20 mmol/L Tris-HCL (pH 6.5) at 37° C. for 60 min. In addition, another set of cells, subjected to Compound 1 or Oxaliplatin treatment were treated with RNase at a concentration of 5 mg/mL at 37° C. for 60 minutes. After another wash in PBS, the coverslips were exposed to propidium iodide at a final concentration of 50 μg/ml, diluted in a solution containing 10 mmol/L Tris-HCl (pH 7.4) and 5 mmol/L MgCl2. Stained cells were kept at 4° C. prior to microscopic analysis using a NIKON epi-fluorescence microscope using excitation wavelengths of 480 nm and emission wavelengths of 590 nm.

In data set [8] the test system is splenic B cells. Nature of the data set: relative mRNA expression of B cell differentiation and TLR activation genes in isolated splenic B cells. Type of data set: in vivo. As to conditions: B cells from tumor bearing mice treated (Group 3), normalized to Group 1, FIG. 6B. As to the method:
Mice splenic B cells were isolated from Group 1 and Group 3 mice, described in Example 3.
Spleen was harvested from mice (n=3) and minced into small pieces in RPMI-1640 basal media. The pieces were placed on top of a 40 mesh membrane and crushed with the back of a syringe and the single cell suspension was collected onto a 50 ml tube. The single cell suspension was washed twice with PBS to remove debris by centrifuging at 2000 rpm. Splenocytes were counted using haemocytometer and 100 million splenocytes were resuspended in 1 ml of isolation buffer (2% FBS, […] in DPBS) and transferred to a 5 ml polysterene tube. The B cells were isolated from splenocytes using the EasySep Stem Cell B cell isolation kit as per manufacturers protocol. Ten million B cells were used for RNA isolation, followed by relative mRNA expression levels of genes involved in B cell differentiation and TLR activation were evaluated.

Data set [9] has as its system splenic B cells. Briefly: splenic B cells cultured with treatment conditioned media (TCM) from treated 4T1 cells, relative mRNA expression. Type of data set: cell-based, mice. As to the method:
4T1 cells were seeded in cell culture dishes in RPMI-1640 media containing 10% FBS. The cells were treated with Oxaliplatin and Compound 1 when they reached 60% confluence. Following a transient treatment of 6 hours, the media was removed and supplemented with fresh culture media. Cells were incubated at 37° C. for 24 hours. After 24 hours, the treatment conditioned media (TCM) was collected from each treatment and divided into two parts. One part was passed through 0.1 micron PES filters to obtain tumor conditioned media free of cell debris, with nucleic acids intact; while the other was passed through 0.1 micron Nylon membrane filters, where the nucleic acids would stick and get removed. The filtration process through Nylon membrane was repeated twice to remove all nucleic acids from the TCM. The harvested TCMs were used immediately for conditioning of B cells, isolated from naïve mice splenocytes using the EasySep Stem Cell B cell isolation kit as per manufacturers protocol. The B cells were incubated with conditioned media and harvested after 24 hours of incubation. RNA was isolated from the B cells and used for relative mRNA expression level evaluation of genes involved in B cell differentiation and TLR activation.

The structures appear in SMILES notation.

Take `CC(C)CCC[C@@H](C)[C@H]1CCC2C3CC=C4C[C@@H](OCCN(CC(=O)[O-])CC(=O)[O][Pt+]5[NH][C@@H]6CCCC[C@H]6[NH]5)CC[C@]4(C)C3CC[C@@]21C` (stereo partly drawn) [Compound 1]: in [1], the “IGKC mRNA levels in tumors” value is “significant increase in IGKC mRNA levels”. Further, in data set [2], the “B220 level by immunohistochemistry” value is given as “elevated levels” and the “IGKC level by immunohistochemistry” value was “elevated levels”. For the same compound, in data set [3], the “activation of TCR” value is listed as “substantial activation of TCR”. For the same compound, the “infiltration of cytotoxic T cells (CD8+ T cells) in tumors” value in data set [4] was “infiltration of cytotoxic T cells”. Further, the “tumor growth after implantation of 4T1 cells in treated non-tumor bearing mice” value in [5] (Group 1: non-tumor bearing Balb/c mice treated, similar to saline treated mice (Group 2), FIG. 3C) is “led to the growth of tumors”. For the same compound, the “tumor growth upon re-implantation of cancer cells (immune memory)” value in data set [5] (Group 3: animals that had previously undergone tumor regression with treatment, FIG. 3B) is “no tumor growth was observed upon re-implantation of cancer cells”. Further, the “tumor regression in mice lacking immune cells” value in data set [6] (4T1 tumors in B cell-deficient (Jh−/−) and SCID mice, growth similar to control mice) was “Tumors do not regress”. Also, the “tumor regression in immunocompetent mice” value in [6] (4T1 tumors in Balb/c mice) was “causes tumor regression only in immunocompetent mice”. Besides, the “relative fluorescent intensity per field (dsRNA amount)” value in [7] (DNase treated samples, propidium iodide stain, FIG. 5C) is “enhancement of relative fluorescent intensity per field”. Further, in [7] (compared to Oxaliplatin), the “stability of RNA adducts” value is “more stable RNA adducts”. Moreover, in [8], the “IGKC mRNA levels in splenic B cells” value is given as “significant increase in IGKC mRNA levels”; the “expression of TLRs and CD80 in splenic B cells” value was “elevated expression of TLRs and CD80”. For the same compound, the “B cell differentiation markers and TLR activation markers (relative mRNA)” value in [9] (TCM with nucleic acids intact (PES filter), 24 hours incubation, FIG. 7B) is recorded as “substantially increased”. Also, the “relative level of B cell differentiation and TLR activation markers, nucleic acid depleted TCM” value in data set [9] (nucleic acids removed from TCM (Nylon membrane filter), FIG. 7C) is reported as “substantially reduced”.
